The molecules below were run on P. falciparum Dd2 (assay: Activity against the Dd2 strain of P. falciparum (SYBR Green I, 72 h)). Conditions: P. falciparum Dd2, 72 h incubation.
Format: cell-based
Protocol: The Dd2 strain of P. falciparum was cultured in complete medium (RPMI with L-glutamine, 4.3% heat-inactivated O-positive human serum, 2.08 mg/ml albumax, 0.013 mg/ml hypoxanthine, 1.17 mg/ml glucose, 0.18% NaHCO3, 0.031 M Hepes, 2.60 mM NaOH, and 0.043 mg/ml gentamicin) until the parasitemia reached 3-8%. Parasitemia was determined by checking at least 500 red blood cells from a Giemsa-stained blood smear. The Dd2 cultures along with tested O-positive red blood cells were centrifuged at room temperature at 2,000 rpm for 5 minutes using an Eppendorf centrifuge 5810R with an A-4-81 rotor. The medium was aspirated off. For the compound screening, a parasite dilution at a 1% parasitemia and 1.0% hematocrit was created with screening medium (RPMI with L-glutamine, 4.16 mg/ml albumax II, 0.013 mg/ml hypoxanthine, 1.73 mg/ml glucose, 0.18% NaHCO3, 0.031 M Hepes, 2.60 mM NaOH, and 0.043 mg/ml gentamicin). The suspension was gassed with 93% nitrogen, 4% carbon dioxide, and 3% oxygen and placed at 37° C. until needed. Using a liquid dispenser, 20 μl of screening medium was dispensed into 384-well, black, clear-bottom plates. With a PinTool, 100 nl of compounds dissolved in DMSO was transferred into the assay plates along with control compound (mefloquine). Next, 30 μl of the parasite suspension in screening medium was then dispensed into the assay plates such that the final parasitemia was 1% and the final hematocrit was 1.0%. Final concentration of DMSO was 0.125%. Mefloquine at a final concentration of 20 μM and DMSO at a final concentration of 0.125% were used within the assay plates to serve as background and baseline controls, respectively. The assay plates were transferred to incubators (93% nitrogen, 4% carbon dioxide, and 3% oxygen during the 72 h incubation at 37° C.). Ten microliters of detection reagent consisting of 10×SYBR Green I (Invitrogen; supplied in 10,000× concentration) in lysis buffer (20 mM Tris-HCl, 5 mM EDTA, 0.16% Saponin wt/vol, 1.6% Triton X vol/vol) was dispensed into the assay plates. For optimal staining, the assay plates were left at room temperature for 24 h in the dark. The assay plates were read by using an Envision (PerkinElmer) reader, with 505 dichroic mirrors with 485-nm excitation and 530-nm emission settings, and the plate reads were from the bottom.
By following the above-described protocol, the 50% effective concentration (EC50) for compounds 1-95 was measured against P. falciparum Dd2 and the results are shown in Table 2: […]

Compound	EC50 [nM]
O=C(Nc1ccccc1)N1CCCCN2[C@H](CO)[C@H](c3ccc(C#Cc4ccccc4)cc3)[C@@H]2C1 [Compound 78, (8R,9R,10S)-10-(hydroxymethyl)-N-phenyl-9-[4-(2-phenylethynyl)phenyl]-1,6-diazabicyclo[6.2.0] decane-6-carboxamide]	61

Same assay, conditions: Plasmodium falciparum, DD2, 72 h, P. falciparum Dd2, 72 h incubation

Compound	EC50 [nM]
COc1ccc(NC(=O)N2CCCCN3[C@H](CO)[C@H](c4ccc(-c5ccc(F)cc5)cc4)[C@@H]3C2)cc1 [Compound 42, (8R,9R,10S)-9-[4-(4-fluorophenyl)phenyl]-10-(hydroxymethyl)-N-(4-methoxyphenyl)-1,6-diazabicyclo[6.2.0] decane-6-carboxamide]	9680
O=C(Nc1ccccc1F)N1CCCCN2[C@@H](CO)[C@H](c3ccc(C#Cc4cccnc4)cc3)[C@@H]2C1 [Compound 10, (8R,9R,10R)-N-(2-fluorophenyl)-10-(hydroxymethyl)-9-(4-(pyridin-3-ylethynyl)phenyl)-1,6-diazabicyclo[6.2.0] decane-6-carboxamide]	949
COc1ccc(NC(=O)N(C)C[C@H]2[C@@H](c3ccc(C#Cc4ccccc4)cc3)[C@@H](CO)N2C)cc1 [Compound 95, 1-(((2R,3R,4S)-4-(hydroxymethyl)-1-methyl-3-(4-(phenylethynyl)phenyl)azetidin-2-yl)methyl)-3-(4-methoxyphenyl)-1-methylurea]	5000
COc1ccc(NC(=O)N2CCCCN3[C@H](CO)[C@H](c4ccc(-c5ccn(-c6ccccc6)n5)cc4)[C@@H]3C2)cc1 [Compound 77, (8R,9R,10S)-10-(hydroxymethyl)-N-(4-methoxyphenyl)-9-[4-(1-phenyl-1H-pyrazol-3-yl)phenyl]-1,6-diazabicyclo[6.2.0] decane-6-carboxamide]	4890
O=C(Nc1ccc(OCCN2CCOCC2)cc1)N1CCCCN2[C@H](CO)[C@H](c3ccc(C#Cc4ccccc4)cc3)[C@@H]2C1 [Compound 83, (8R,9R,10S)-10-(hydroxymethyl)-N-(4-(2-morpholinoethoxy)phenyl)-9-(4-(phenylethynyl)phenyl)-1,6-diazabicyclo[6.2.0] decane-6-carboxamide]	24
COc1ccc(NC(=O)N2CCCCN3[C@H](CO)[C@H](c4ccc(C#CCC(C)C)cc4)[C@@H]3C2)cc1 [Compound 24, (8R,9R,10S)-10-(hydroxymethyl)-N-(4-methoxyphenyl)-9-(4-(4-methylpent-1-yn-1-yl)phenyl)-1,6-diazabicyclo[6.2.0] decane-6-carboxamide]	418
COc1ccc(NC(=O)N2CCCCN3[C@H](CO)[C@H](c4ccc(C#CC5CCCCC5)cc4)[C@@H]3C2)cc1 [Compound 45, (8R,9R,10S)-9-[4-(2-cyclohexylethynyl)phenyl]-10-(hydroxymethyl)-N-(4-methoxyphenyl)-1,6-diazabicyclo[6.2.0] decane-6-carboxamide]	846
COc1ccccc1NC(=O)N1CCCCN2[C@H](CO)[C@H](c3ccc(C#Cc4ccccc4)cc3)[C@@H]2C1 [Compound 3, (8R,9R,10S)-10-(hydroxymethyl)-N-(2-methoxyphenyl)-9-(4-(phenylethynyl)phenyl)-1,6-diazabicyclo[6.2.0] decane-6-carboxamide]	118
O=C(Nc1cccnc1)N1CCCCN2[C@H](CO)[C@H](c3ccc(C#Cc4ccccc4)cc3)[C@@H]2C1 [Compound 59, (8R,9R,10S)-10-(hydroxymethyl)-9-[4-(2-phenylethynyl)phenyl]-N-(pyridin-3-yl)-1,6-diazabicyclo[6.2.0] decane-6-carboxamide]	2700
COc1ccc(NC(=O)N2CCCCN3[C@H](CO)[C@H](c4ccc(-c5csc(-c6ccccc6)n5)cc4)[C@@H]3C2)cc1 [Compound 39, (8R,9R,10S)-10-(hydroxymethyl)-N-(4-methoxyphenyl)-9-[4-(2-phenyl-1,3-thiazol-4-yl)phenyl]-1,6-diazabicyclo[6.2.0] decane-6-carboxamide]	5170

More lines, now with the values ahead:

EC50 [nM]	Compound
47	CNC[C@@H]1[C@H](c2ccc(C#Cc3ccccc3)cc2)[C@@H]2CN(C(=O)Nc3ccc(OC)cc3)CCCCN12 [Compound 61, (8R,9S,10S)-N-(4-methoxyphenyl)-10-[(methylamino)methyl]-9-[4-(2-phenylethynyl)phenyl]-1,6-diazabicyclo[6.2.0] decane-6-carboxamide]
13	COc1ccc(NC(=O)N2CCCCN3C[C@H](c4ccc(C#Cc5ccccc5)cc4)[C@@H]3C2)cc1 [Compound 70, (8R,9S)-N-(4-methoxyphenyl)-9-[4-(2-phenylethynyl)phenyl]-1,6-diazabicyclo[6.2.0] decane-6-carboxamide]
138	N#Cc1ccc(NC(=O)N2CCCCN3[C@H](CO)[C@H](c4ccc(C#Cc5ccccc5)cc4)[C@@H]3C2)cc1 [Compound 93, (8R,9R,10S)-N-(4-cyanophenyl)-10-(hydroxymethyl)-9-(4-(phenylethynyl)phenyl)-1,6-diazabicyclo[6.2.0] decane-6-carboxamide]
15	COc1ccc(NC(=O)N2CCCCN3[C@H](CO)[C@H](c4ccc(C#Cc5cccc(F)c5)cc4)[C@@H]3C2)cc1 [Compound 38, (8R,9R,10S)-9-{4-[2-(3-fluorophenyl)ethynyl]phenyl}-10-(hydroxymethyl)-N-(4-methoxyphenyl)-1,6-diazabicyclo[6.2.0] decane-6-carboxamide]
8	COc1ccc(NC(=O)N2CCCCN3[C@H](CN(C)C(C)=O)[C@H](c4ccc(C#Cc5ccccc5)cc4)[C@@H]3C2)cc1 [Compound 76, (8R,9S,10S)-N-(4-methoxyphenyl)-10-[(N-methylacetamido)methyl]-9-[4-(2-phenylethynyl)phenyl]-1,6-diazabicyclo[6.2.0] decane-6-carboxamide]
9830	COc1ccc(NC(=O)N2CCCCN3[C@H](CO)[C@H](c4ccc(-c5ccccc5)cc4)[C@@H]3C2)cc1 [Compound 41, (8R,9R,10S)-10-(hydroxymethyl)-N-(4-methoxyphenyl)-9-(4-phenylphenyl)-1,6-diazabicyclo[6.2.0] decane-6-carboxamide]
17	COc1ccc(NC(=O)N2CCCCN3[C@H](CO)[C@H](c4ccc(C#Cc5ccccc5F)cc4)[C@@H]3C2)cc1 [Compound 72, (8R,9R,10S)-9-{4-[2-(2-fluorophenyl)ethynyl]phenyl}-10-(hydroxymethyl)-N-(4-methoxyphenyl)-1,6-diazabicyclo[6.2.0] decane-6-carboxamide]
158	COc1ccc(NC(=O)N2CCCCN3[C@H](CN4CCN(C)CC4)[C@H](c4ccc(C#Cc5ccccc5)cc4)[C@@H]3C2)cc1 [Compound 32, (8R,9S,10S)-N-(4-methoxyphenyl)-10-[(4-methylpiperazin-1-yl)methyl]-9-[4-(2-phenylethynyl)phenyl]-1,6-diazabicyclo[6.2.0] decane-6-carboxamide]
3	COc1ccc(NC(=O)N2CCCCN3[C@@H](CNC(C)=O)[C@H](c4ccc(C#Cc5ccccc5)cc4)[C@@H]3C2)cc1 [Compound 82, (8R,9S,10R)-10-(acetamidomethyl)-N-(4-methoxyphenyl)-9-(4-(phenylethynyl)phenyl)-1,6-diazabicyclo[6.2.0] decane-6-carboxamide]
2770	COc1ccc(NC(=O)N2CCCCN3[C@H](C(=O)O)[C@H](c4ccc(C#Cc5ccccc5)cc4)[C@@H]3C2)cc1 [Compound 53, (8R,9R,10S)-6-[(4-methoxyphenyl)carbamoyl]-9-[4-(2-phenylethynyl)phenyl]-1,6-diazabicyclo[6.2.0] decane-10-carboxylic acid]
87	COc1ccc(NC(=O)N2CCCCCN3[C@H](CO)[C@H](c4ccc(C#Cc5ccccc5)cc4)[C@@H]3C2)cc1 [Compound 74, (9R,10R,11S)-11-(hydroxymethyl)-N-(4-methoxyphenyl)-10-[4-(2-phenylethynyl)phenyl]-1,7-diazabicyclo[7.2.0] undecane-7-carboxamide]
1230	O=C(Nc1ccncc1)N1CCCCN2[C@H](CO)[C@H](c3ccc(C#Cc4ccccc4)cc3)[C@@H]2C1 [Compound 50, (8R,9R,10S)-10-(hydroxymethyl)-9-[4-(2-phenylethynyl)phenyl]-N-(pyridin-4-yl)-1,6-diazabicyclo[6.2.0] decane-6-carboxamide]
1	COC(=O)CCOC[C@@H]1[C@H](c2ccc(C#Cc3ccccc3)cc2)[C@@H]2CN(C(=O)Nc3ccc(OC)cc3)CCCCN12 [Compound 87, methyl 3-(((8R,9R,10S)-6-((4-methoxyphenyl)carbamoyl)-9-(4-(phenylethynyl)phenyl)-1,6-diazabicyclo[6.2.0]decan-10-yl)methoxy)propanoate]

— US11325913B2, “Compounds and methods for the treatment of malaria” (THE BROAD INSTITUTE, INC., priority 2013, dated 2022)
